Data taken from article PMC10099813, “Stafiba: A STAT5‐Selective Small‐Molecule Inhibitor” (Chembiochem, 2022).

How the values were obtained:
[1] = target: T1, STAT5a (Homo sapiens, UniProt P42229); assay: Competitive fluorescence polarization (FP) binding assay, STAT5a SH2 domain; settings: FP assay; for Ki: Ki calculated from IC50 (n=3) via published equation; for Ki / IC50: 2 % DMSO (10 % DMSO for 10); for IC50: n=3 unless stated; for inhibition at 100 µM: the highest concentration tested, read-out: maximum inhibition at 100 µM (STAT5a)
T1 sequence (P42229 1-794): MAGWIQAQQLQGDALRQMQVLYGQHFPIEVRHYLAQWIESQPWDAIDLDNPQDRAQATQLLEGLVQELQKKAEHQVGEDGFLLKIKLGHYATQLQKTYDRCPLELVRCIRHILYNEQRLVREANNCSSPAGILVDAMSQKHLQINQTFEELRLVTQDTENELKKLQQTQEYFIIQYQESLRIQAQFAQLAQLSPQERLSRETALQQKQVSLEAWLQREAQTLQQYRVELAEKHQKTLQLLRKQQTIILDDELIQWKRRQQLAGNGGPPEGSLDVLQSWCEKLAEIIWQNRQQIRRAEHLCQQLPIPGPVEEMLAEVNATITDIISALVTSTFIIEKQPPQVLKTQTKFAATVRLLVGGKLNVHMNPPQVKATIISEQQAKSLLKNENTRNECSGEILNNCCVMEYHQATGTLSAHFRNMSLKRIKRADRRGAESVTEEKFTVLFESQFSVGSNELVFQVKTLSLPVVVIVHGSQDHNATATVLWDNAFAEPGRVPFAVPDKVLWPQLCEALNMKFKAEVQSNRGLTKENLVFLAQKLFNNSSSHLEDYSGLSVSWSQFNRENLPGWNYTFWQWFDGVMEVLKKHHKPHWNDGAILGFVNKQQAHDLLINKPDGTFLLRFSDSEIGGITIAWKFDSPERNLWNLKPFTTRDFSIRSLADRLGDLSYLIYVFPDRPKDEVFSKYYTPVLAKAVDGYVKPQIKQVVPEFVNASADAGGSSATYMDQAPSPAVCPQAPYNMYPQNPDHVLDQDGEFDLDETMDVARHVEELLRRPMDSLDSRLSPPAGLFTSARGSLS
Protocol: (§1) Fluorescence polarization assays: Competitive binding assays based on fluorescence polarization were carried out essentially as previously described.[[4a]] Unless stated otherwise, final concentrations of the buffer components were: 10 mM Tris (pH 8.0), 50 mM NaCl, 1 mM EDTA, 1 mM DTT, 0.1 % (v/v) Nonidet P‐40 substitute, and 2 % DMSO. Proteins were used at concentrations which reflect the Kd values of the interactions between the fluoropeptide and the protein preparations. Protein concentrations used for activity analysis of compound 5 were 91 nM for STAT1, 107 nM for STAT3, 28 nM for STAT4, 122 nM for STAT5a, 56 nM for STAT5b and 101 nM for STAT6. Protein concentrations used for activity analysis of AC‐4‐130 were 103 nM for STAT5a and 62 nM for STAT5b. […] Final concentration of all fluorescent‐labelled peptides was 10 nM. The following peptides were used in assays: 5‐carboxyfluorescein‐GpYDKPHVL for STAT1; 5‐carboxyfluorescein‐GpYLPQTV‐NH2 for STAT3; 5‐carboxyfluorescein‐GpYLPQNID for STAT4; 5‐carboxyfluorescein‐GpYLVLDKW for STAT5a/5b, and 5‐carboxyfluorescein‐GpYVPWQDLI for STAT6. Protein and test compounds were incubated for 1 h prior to addition of the fluorescein‐labeled peptide. Fluorescence polarization was measured after another 60 min using an Infinite F500 plate reader (Tecan). IC50 values were converted to Ki‐values using the published equation.[13]

[2] = target: T2, STAT5b (Homo sapiens, UniProt P51692); assay: Competitive fluorescence polarization (FP) binding assay, STAT5b SH2 domain; settings: FP assay; for Ki: Ki calculated from IC50 (n=3) via published equation; for Ki / IC50: 2 % DMSO (10 % DMSO for 10); for IC50: n=3
T2 sequence (P51692 1-787): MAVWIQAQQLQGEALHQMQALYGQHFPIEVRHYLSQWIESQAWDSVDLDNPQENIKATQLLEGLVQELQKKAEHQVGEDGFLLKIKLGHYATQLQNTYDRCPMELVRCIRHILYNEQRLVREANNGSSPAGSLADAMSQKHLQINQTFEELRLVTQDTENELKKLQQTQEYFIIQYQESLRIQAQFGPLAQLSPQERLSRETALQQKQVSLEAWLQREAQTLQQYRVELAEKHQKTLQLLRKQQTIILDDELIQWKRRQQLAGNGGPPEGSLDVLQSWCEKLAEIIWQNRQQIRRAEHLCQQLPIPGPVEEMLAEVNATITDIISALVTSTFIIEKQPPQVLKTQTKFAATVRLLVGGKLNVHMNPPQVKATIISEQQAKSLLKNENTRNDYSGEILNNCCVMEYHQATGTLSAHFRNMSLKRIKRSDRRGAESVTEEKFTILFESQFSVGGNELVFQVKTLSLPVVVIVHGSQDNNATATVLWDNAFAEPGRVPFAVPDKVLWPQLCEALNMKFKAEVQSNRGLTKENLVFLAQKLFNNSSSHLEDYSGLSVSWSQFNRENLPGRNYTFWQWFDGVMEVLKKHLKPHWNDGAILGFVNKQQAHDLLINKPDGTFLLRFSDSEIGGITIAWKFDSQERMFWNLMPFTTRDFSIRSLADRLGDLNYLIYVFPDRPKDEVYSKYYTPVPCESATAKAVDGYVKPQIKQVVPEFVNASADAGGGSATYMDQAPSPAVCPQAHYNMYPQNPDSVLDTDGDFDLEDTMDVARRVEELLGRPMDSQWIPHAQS
Protocol: as §1

[3] = Solubility as observed during synthesis / stock preparation; format: physicochemical; settings: remark on synthesis

Row | SMILES | Ki [1] [µM] | IC50 [1] [µM] | Ki [2] [µM] | IC50 [2] [µM] | inhibition at 100 µM [1] [%] | increase of activity against STAT5a relative to resorcinol bisphosphate (1) ([1]; ratio of Ki values) [fold] | solubility of the final product [3] | increase of activity against STAT5b relative to resorcinol bisphosphate (1) ([2]; ratio of Ki values) [fold] | inhibition at 100 µM ([2]; 100 µM, read-out: maximum inhibition at 100 µM (STAT5b)) [%]
1 | O=P(O)(O)Oc1cccc(OP(=O)(O)O)c1 [compound 1, 1,3-Phenylene bis(dihydrogen phosphate)] | 23.3 ± 4.9 | 47.2 ± 9.9 | 20.4 ± 0.7 | 41.6 ± 1.4 |  |  |  |  | 
2 | CC(=O)NCc1ccc(OP(=O)(O)O)cc1OP(=O)(O)O [compound 2] |  |  | 42.1 ± 1.6 | 85.7 ± 3.2 | 50 ± 3 |  |  |  | 
3 | CC(=O)NCc1cc(OP(=O)(O)O)cc(OP(=O)(O)O)c1 [compound 3] | 36.4 ± 3.8 | 73.8 ± 7.7 | 18.7 ± 0.8 | 38.1 ± 1.6 |  |  |  |  | 
4 | O=C(COc1ccc(C(=O)Nc2ccc(Oc3ccccc3)cc2)cc1)NCc1cc(OP(=O)(O)O)cc(OP(=O)(O)O)c1 [compound 4] | 2.5 ± 0.5 | 5.2 ± 1 | 0.9 ± 0.1 | 1.9 ± 0.3 |  | 9 | limited solubility | 23 | 
5 | O=P(O)(O)Oc1ccc(F)c(OP(=O)(O)O)c1 [compound 6] | 29.4 ± 0.6 | 59.4 ± 1.2 | 27.4 ± 2.8 | 55.8 ± 5.6 |  |  |  |  | 
6 | O=P(O)(O)Oc1cccc(OP(=O)(O)O)c1F [compound 7] | 10.8 ± 0.5 | 21.8 ± 0.9 | 7.6 ± 0.4 | 15.5 ± 0.8 |  |  |  |  | 
7 | O=P(O)(O)Cc1cccc(CP(=O)(O)O)c1F [compound 8] |  |  |  |  | 12 ± 3 |  |  |  | 14 ± 1
8 | O=P(O)(O)C(F)(F)c1cccc(C(F)(F)P(=O)(O)O)c1F [compound 9] | 15 ± 0.6 | 30.7 ± 1.3 | 18.9 ± 1.5 | 38.4 ± 3 |  |  |  |  | 
